Test results: patent US11926642B2, “Compounds and methods for the treatment of COVID-19” (priority 2020, dated 2024)
pEC50: −log10 of the molar value. Where “and” joins values, the source holds several entries; their conditions need not be identical. Equal values may be shown once. Read-outs that look alike come from different tables or passages of the source.

Key:
SARS-CoV-2 [1] = assay: Antiviral activity in A549-ACE2 cells, high content imaging of virus N protein; assay type: cell-based, USA-WA1/2020 SARS-CoV-2; conditions: Severe acute respiratory syndrome coronavirus 2, A549-ACE2
SARS-CoV-2 [2] = assay: microbe, parasite or virus in culture; assay type: cell-based, Washington SARS-CoV-2
SARS-CoV-2 [3] = assay: Antiviral activity in HeLa-ACE2 cells, high content imaging with convalescent sera; assay type: cell-based, USA-WA1/2020 SARS-CoV-2; conditions: Severe acute respiratory syndrome coronavirus 2, HeLa-ACE2, 24 h
[4] = human
HCoV-229E = assay: microbe, parasite or virus in culture; assay type: cell-based
hERG = hERG (Homo sapiens, UniProt Q12809)
Chain of hERG (Q12809 whole entry): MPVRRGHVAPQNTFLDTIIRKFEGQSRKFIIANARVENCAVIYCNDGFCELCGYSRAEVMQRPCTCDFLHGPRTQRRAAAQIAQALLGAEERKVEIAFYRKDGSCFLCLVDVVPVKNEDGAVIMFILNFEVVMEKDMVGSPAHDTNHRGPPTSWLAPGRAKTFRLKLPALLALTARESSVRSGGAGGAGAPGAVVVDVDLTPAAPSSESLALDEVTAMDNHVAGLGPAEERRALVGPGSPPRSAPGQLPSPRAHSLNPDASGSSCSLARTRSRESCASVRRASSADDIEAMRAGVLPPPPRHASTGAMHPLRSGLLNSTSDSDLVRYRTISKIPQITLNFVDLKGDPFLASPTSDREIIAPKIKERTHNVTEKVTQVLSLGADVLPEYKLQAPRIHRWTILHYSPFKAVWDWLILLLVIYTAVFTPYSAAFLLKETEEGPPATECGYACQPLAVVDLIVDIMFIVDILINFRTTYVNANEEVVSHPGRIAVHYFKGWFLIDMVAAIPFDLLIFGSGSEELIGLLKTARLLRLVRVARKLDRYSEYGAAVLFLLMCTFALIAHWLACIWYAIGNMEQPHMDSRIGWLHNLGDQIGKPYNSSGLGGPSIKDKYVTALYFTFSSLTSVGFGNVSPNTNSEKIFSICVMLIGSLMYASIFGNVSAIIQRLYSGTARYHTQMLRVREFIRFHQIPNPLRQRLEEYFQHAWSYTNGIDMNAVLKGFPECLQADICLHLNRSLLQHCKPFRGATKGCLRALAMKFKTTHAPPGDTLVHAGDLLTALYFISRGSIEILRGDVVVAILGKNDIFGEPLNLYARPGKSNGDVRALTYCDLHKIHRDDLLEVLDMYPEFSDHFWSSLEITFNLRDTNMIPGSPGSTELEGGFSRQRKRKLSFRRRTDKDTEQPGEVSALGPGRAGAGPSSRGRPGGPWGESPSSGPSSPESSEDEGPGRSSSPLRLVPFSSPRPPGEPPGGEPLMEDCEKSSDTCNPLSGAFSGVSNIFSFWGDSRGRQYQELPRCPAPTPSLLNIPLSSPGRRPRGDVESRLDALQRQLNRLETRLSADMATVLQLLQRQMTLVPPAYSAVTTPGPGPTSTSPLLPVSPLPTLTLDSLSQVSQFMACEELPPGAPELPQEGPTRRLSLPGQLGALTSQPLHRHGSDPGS

[5] = not given; remark: listed apart in the source
in vitro = conditions: human

SMILES	pEC50 (SARS-CoV-2 [1]; 24 hours post infection)	EC90 (SARS-CoV-2 [1]; 24 hours post infection)	pEC50 (SARS-CoV-2 [1]; 48 hours post infection)	EC90 (SARS-CoV-2 [1]; 48 hours post infection)	fold reduction in virion replication (SARS-CoV-2 [2]; 0.5 μM)	fold reduction in virion replication (SARS-CoV-2 [2]; 10 μM)	pEC50 (SARS-CoV-2 [3])	EC90 (SARS-CoV-2 [3])	projected unbound human Cmax [4]	solubility (physchem)	Total Impurities (%) (pH 1.9)	Total Impurities (%) (pH 2.9)	Total Impurities (%) (pH 4.2)	EC50 (HCoV-229E; Human coronavirus 229E, MRC5, read-out: EC50 μM GeoMean (95% CI))	EC50 (HCoV-229E; read-out: EC50 μM GeoMean (95% CI))	hERG current amplitude: no inhibition at up to (hERG)	Increase in Total Impurities (%) - 4 days ([5]; pH 3)	Increase in Total Impurities (%) - 4 days ([5]; pH 4)	Increase in Total Impurities (%) - 4 days ([5]; pH 5)	CC50 (in vitro)
CCC(CC)COC(=O)[C@H](C)N[P@](=O)(OC[C@H]1O[C@@](C#N)(c2ccc3c(N)ncnn23)[C@H](O)[C@@H]1O)Oc1ccccc1 [remdesivir, reference compound]	6.35	1190 nM	6.62	592 nM	93.1 fold	2590 fold	7.13	168 nM	–	–	–	–	–	–	–	–	–	–	–	–
COc1cccc2[nH]c(C(=O)N[C@@H](CC(C)C)C(=O)N[C@@H](C[C@@H]3CCNC3=O)C(=O)COP(=O)(O)O)cc12 [Example 49]	–	–	–	–	–	–	–	–	0.17 µM	> 200 mg/mL	3.2% and 5.4% and 8.9%	2.0% and 2.5% and 3.0%	3.0% and 3.8% and 6.5%	0.074 µM	0.058 µM	300 µM	0.8% and 1.2%	1.4% and 1.5% and 1.6%	4.3% and 4.1% and 3.6%	> 100 µM
